From patent publication EP0520554A2, “C-21 hydroxylated FK-506 antagonist” (MERCK & CO. INC., priority 1991, dated 1992) come the findings set out here.

The test concerns mouse T-cells activated with ionomycin + PMA. As to the kind of experiment: T-cell proliferation assay (ionomycin plus PMA induced T-cell stimulation, tritiated thymidine uptake). Format: cell-based, C57B1/6 mice. Here is the method: The principle of this assay is to measure the proliferation of mouse T lymphocytes stimulated with the combination of ionomycin plus PMA. […] Cells were pelleted by centrifugation at 1500 rpm for 8 minutes. Contaminating red cells were removed by treating the pellet with ammonium chloride lysing buffer (GIBCO) for 2 minutes at 4°C. Cold medium was added and cells were again centrifuged at 1500 rpm for 8 minutes. T lymphocytes were then isolated by separation of the cell suspension on nylon wool columns as follows: Nylon wool columns were prepared by packing approximately 4 grams of washed and dried nylon wool into 20 ml plastic syringes. The columns were sterilized by autoclaving at 250°F for 30 minutes. Nylon wool columns were wetted with warm (37°C) culture medium and rinsed with the same medium. Washed spleen cells resuspended in warm medium were slowly applied to the nylon wool. The columns were then incubated in an upright position at 37°C for 1 hour. Non-adherent T lymphocytes were eluted from the columns with warm culture medium and the cell suspensions were spun as above. […] Ionomycin was added at 250 ng/ml and PMA at 10 ng/ml. The cell suspension was immediately distributed into 96 well flat-bottom microculture plates (Costar) at 200 µl/well. […] The proliferation of T lymphocytes was assessed by measurement of tritiated thymidine incorporation. After 44 hours of culturing, the cells were pulse-labelled with 2 µCi/well of tritiated thymidine (NEN, Cambridge, MA). After another 4 hours of incubation, cultures were harvested on glass fiber filters using a multiple sample harvester. Radioactivity of filter discs corresponding to individual wells was measured by standard liquid scintillation counting methods (Betacounter).

The structures appear in SMILES notation.

For `CCC1(O)C=C(C)CC(C)CC(OC)C2OC(O)(C(=O)C(=O)N3CCCCC3C(=O)OC(C(C)=CC3CCC(O)C(OC)C3)C(C)C(O)CC1=O)C(C)CC2OC` (centres unmarked) [21-OH-590, C-21 hydroxylated FR-900520], where the note is “Mus musculus, T-cell, sample 125 ng/ml, no FK-506, tritiated thymidine uptake, harvest at 48 hours”, the inhibition at 0.125 µg/mL turned out to be 0%. In addition, the inhibition at 0.25 µg/mL (Mus musculus, T-cell, sample 250 ng/ml, no FK-506, tritiated thymidine uptake, harvest at 48 hours) worked out at 0%. Besides, the inhibition at 0.5 µg/mL (Mus musculus, T-cell, sample 500 ng/ml, no FK-506, tritiated thymidine uptake, harvest at 48 hours) came to 0%. In addition, the inhibition at 1 µg/mL (Mus musculus, T-cell, sample 1000 ng/ml, no FK-506, tritiated thymidine uptake, harvest at 48 hours) was determined as 0%. Besides, the “% Inhibition + FK-506 (1.2 nM)” value is, setting by setting: (sample 125 ng/ml in presence of FK-506 1.2 nM, harvest at 48 hours) 94%; (sample 250 ng/ml in presence of FK-506 1.2 nM, harvest at 48 hours) 63%.
As to `C=CC[C@@H]1/C=C(\C)C[C@H](C)C[C@H](OC)[C@H]2O[C@@](O)(C(=O)C(=O)N3CCCC[C@H]3C(=O)O[C@H](/C(C)=C/[C@@H]3CC[C@@H](O)[C@H](OC)C3)[C@H](C)[C@@H](O)CC1=O)[C@H](C)C[C@@H]2OC` [FK-506], the inhibition at 0.01 µg/mL (Mus musculus, T-cell) came to 99%. Also, under “Mus musculus, T-cell, read-out: % Inhibition + FK-506 (1.2 nM)”, the inhibition at 0.0012 µM was found to be 97%.
